Experimental data: patent US11452731B2, “Method of treating and preventing loss of cognition” (ENDORECHERCHE, INC., priority 2009, dated 2022)
Marks after values point to notes of the source that are not given here.

Tests used:
[1] = Uterine and vaginal weight in ovariectomized BALB/c mice treated orally for 9 days with or without estrone (Example 3); format: in vivo; conditions: for inhibition of estrone-stimulated uterine weight / inhibition of vaginal weight (estrone-stimulated): OVX mice + estrone; for stimulation of uterine weight (estrogenic effect) / stimulation of vaginal weight (estrogenic effect): OVX mice, absence of estrone, 10 μg daily (no-effect statements: 1 μg and 10 μg)
Description: Female BALB/c mice (BALB/cAnNCrlBR) weighing 18-20 g were obtained from Charles-River, Inc. (St-Constant, Quebec, Canada) and housed 5 per cage in a temperature (23±1° C.)- and light (12 h light/day, lights on at 7:15)-controlled environment. The mice were fed rodent chow and tap water ad libitum. The animals were ovariectomized (OVX) under Isoflurane anesthesia via bilateral flank incisions and randomly assigned to groups of 10 animals. Ten mice were kept intact as controls.
In the second experiment (Table 6), TSE 424 was administered orally by gavage once daily at doses of 1, 3, 10 or 30 μg/animal for 9 days, starting 2 days after ovariectomy. In both experiments, to evaluate the antiestrogenic activity, treatment with estrone (E1, […], s.c. injection, twice daily) was started 5 days post-ovariectomy and was administered for a 6 day-period. Compounds were dissolved in ethanol (4% final concentration) and administered in 0.4% methylcellulose. Mice in the intact and OVX control groups received the vehicle alone (4% ETOH-0.4% methylcellulose) during the 9-day period. The animals were killed by exsanguination at the abdominal aorta on the 11th morning following ovariectomy. The uteri and vagina were rapidly dissected, weighed, and kept in 10% buffered formalin for further histologic examination.

[2] = system: ZR-75-1 human breast cancer xenografts; test: Growth and response of human ZR-75-1 breast tumors in OVX nude mice, 7 antiestrogens for 161 days with or without estrone (Example 8); format: in vivo; conditions: for increase of average tumor size over baseline (agonistic effect) / tumors in the progression category, % / tumors in the progression category, number of total: absence of estrone, 200 μg daily; for increase of average tumor size over baseline (agonistic effect) / progressing tumors, % of tumors / progressing tumors, number of total / tumors in the progression category, % / tumors in the progression category, number of total: 161 days; for average tumor size above pretreatment values: estrone-stimulated, 50 μg oral daily, 23 weeks; for progressing tumors, % of tumors / progressing tumors, number of total: estrone-supplemented, 50 μg daily
Description: ZR-75-1 human breast cancer cells were obtained from the American Type Culture Collection (Rockville, Md.) and cultured in phenol red-free RPMI-1640 medium. […] (Saint-Constant, Québec, Canada). The mice (5 per cage) were housed in vinyl cages equipped with air filter lids, which were kept in laminar airflow hoods and maintained under pathogen-limiting conditions. The photoperiod was 12 hours of light and 12 hours of darkness (lights on at 07:15). Cages, bedding and food (Agway Pro-Lab R-M-H Diet #4018) were autoclaved before use. Water was autoclaved and provided ad libitum. Bilateral ovariectomy was performed under isoflurane-induced anesthesia. […] Randomization and treatments were started one week later. […] The estrone implants were then removed from the animals in the ovariectomized control group (OVX) and in groups that were to receive the antiestrogen alone. […] Tamoxifen was purchased from […]) while toremifene citrate was purchased from Orion (Espoo, Finland). […] The antiestrogen suspensions at the appropriate concentration were prepared each month, stored at 4° C. and used under constant agitation. Powder stock were hermetically stored at 4° C. […] Two perpendicular diameters were recorded and tumor area (mm2) was calculated using the formula: […] Tumor response was assessed at the end of the study or at death of each animal, if it occurred during the course of the experiment. In this case, only data of mice that survived for at least half of the study ([…]) were used in the tumor response analysis.

[3] = Endometrial epithelium thickness in OVX nude mice after 161 days of antiestrogen (Example 8); format: in vivo; conditions: for inhibition of the stimulatory effect of estrone on epithelial height: 50 μg daily oral, estrone stimulation; for height of uterine epithelial cells, % of the OVX control group value: 200 μg daily, absence of estrone
Excerpt: The 17 groups included two control groups (OVX and OVX+Estrone), seven groups supplemented with an estrone implant and treated with an antiestrogen and eight other groups that received an antiestrogen alone. The estrone implants were then removed from the animals in the ovariectomized control group (OVX) and in groups that were to receive the antiestrogen alone. […] Tamoxifen was purchased from […]) while toremifene citrate was purchased from Orion (Espoo, Finland). […] The antiestrogen suspensions at the appropriate concentration were prepared each month, stored at 4° C. and used under constant agitation. Powder stock were hermetically stored at 4° C. […] After 161 days of treatment, the remaining animals were anesthetized with isoflurane and killed by exsanguination. […] The uteri were prepared to evaluate endometrial thickness by image analysis performed with Image Pro-Plus (Media Cybernetics, Maryland, USA). […] Hematoxylin- and eosin-stained sections of mice uteri were analyzed. […] Mean epithelial cell height was measured in all animals of each group.

human Ishikawa cells = test: Alkaline phosphatase activity in human endometrial adenocarcinoma Ishikawa cells (Example 6); conditions: for IC50 / Emax: Homo sapiens, Ishikawa, 120 h; for IC50: read-out: Inhibition of 1 nM E2-induced stimulation of alkaline phosphatase IC50; for Emax: read-out: Maximal stimulation of alkaline phosphatase % of 1 nM E2 stimulation; for Maximal inhibition of 1 nM E2-induced stimulation of alkaline phosphatase: Ishikawa cells, 5-day incubation
[4] = 3-month treatment of ovariectomized rats: lumbar spine BMD, total body fat, serum cholesterol, ALP (Example 4, experiment 1); format: in vivo, rat; conditions: OVX rats, 3 months
Description: Ten to twelve week-old female Sprague-Dawley rats (Crl:CD(SD)Br) (Charles River Laboratory, St-Constant, Canada) weighing approximately 220-270 g at start of treatment were used. The animals were acclimatized to the environmental conditions (temperature: 22±3° C.; humidity: 50±20%; 12-h light-12-h dark cycles, lights on at 07:15 h) for at least 1 week before starting the experiments. The animals were housed individually and were allowed free access to tap water and a pelleted certified rodent feed (Lab Diet 5002, Ralston Purina, St-Louis, Mo.). Experiments were conducted in an animal facility approved by the Canadian Council on Animal Care (CCAC) and the Association for Assessment and Accreditation of Laboratory Animal Care (AAALAC) in accordance with the CCAC Guide for Care and Use of Experimental Animals.
On day 1 of the study, the animals of the appropriate groups were bilaterally ovariectomized (OVX) under isoflurane anesthesia. The DHEA was applied topically on the dorsal skin as a solution in 50% ethanol-50% propylene glycol while the other tested compounds were administered as suspension in 0.4% methylcellulose by oral gavage. Treatments were initiated on day 2 of the study and were performed once daily during 3 months.
After 3 months (experiment 1) or 26 weeks (experiment 2) of treatment, individual rats under Isoflurane anesthesia had their whole body skeleton and lumbar spine scanned using dual energy x-ray absorptiometry (DEXA; QDR 4500A, Hologic, Waltham, Mass.) and a Regional High Resolution Scan software. The bone mineral density (BMD) of the lumbar spine (vertebrae L2 to L4) and the total body composition (fat percentage) were determined.
After 3 months (experiment 1) or 26 weeks (experiment 2) of treatment, blood samples were collected at the jugular vein from overnight fasted animals (under Isoflurane anesthesia). Samples were processed for serum preparation and frozen at −80° C. until assay. Serum cholesterol levels and alkaline phospatase activity (ALP) were determined using the Boehringer Mannheim Diagnostic Hitachi 911 Analyzer (Boehringer Mannheim Diagnostic Laboratory Systems).

[5] = OVX + E1, antiestrogen 50 μg daily
[6] = OVX without E1, antiestrogen 200 μg daily
[7] = E2 1 mg/kg, EM-652.HCl 2.5 mg/kg, DHEA 80 mg/kg

Compound	increase of average tumor size over baseline (agonistic effect) [2]	average tumor size above pretreatment values [2] [%]	progressing tumors, % of tumors [2] [%]	progressing tumors, number of total [2]	inhibition of the stimulatory effect of estrone on epithelial height [3] [%]	height of uterine epithelial cells, % of the OVX control group value [3] [%]	ENDOMETRIAL EPITHELIUM THICKNESS (μm) ± SEM [3, 5]	ENDOMETRIAL EPITHELIUM THICKNESS (μm) ± SEM [3, 6]	IC50 (human Ishikawa cells) [nM]	Emax (human Ishikawa cells) [%]	Maximal inhibition of 1 nM E2-induced stimulation of alkaline phosphatase (human Ishikawa cells)	other results
Cl.O=C(c1ccc(OCCN2CCCCC2)cc1)c1c(-c2ccc(O)cc2)sc2cc(O)ccc12 [Raloxifene, [2-(4-hydroxyphenyl)-6-hydroxybenzo[b]thien-3-yl] [4-[2-(1-piperidinyl)ethoxy]phenyl]-methanone hydrochloride]	did not significantly change	191	81	21 of 26	26	122	34.72^b,d ± 0.06 μm	22.33^a ± 0.05 μm	3.39 ± 0.9	12.8 ± 1.7	94.31 ± 1.74 (5)	inhibition of estrone-stimulated uterine weight ([1]; oral 9 days, 1 μg daily): 6%; inhibition of estrone-stimulated uterine weight ([1]; oral 9 days, 3 μg daily): 14%; inhibition of estrone-stimulated uterine weight ([1]; oral 9 days, 10 μg daily): 43%; inhibition of vaginal weight (estrone-stimulated) ([1]; oral 9 days, 10 μg daily): 24%; stimulation of uterine weight (estrogenic effect) [1]: 85%; stimulation of vaginal weight (estrogenic effect) [1]: 56%
CC/C(=C(\c1ccc(I)cc1)c1ccc(OCCN2CCCC2)cc1)c1ccccc1 [Idoxifene, (E)-1-[2-[4-[1-(4-Iodophenyl)-2-phenyl-1-butenyl]phenoxy]ethyl]pyrrolidine]	125%	86	71	20 of 28	50	176	29.35^b,d ± 0.05 μm	32.14^b,d ± 0.05 μm	–	–	–	tumors in the progression category, % [2]: 33%; tumors in the progression category, number of total [2]: 8 of 24
CN(C)CCOc1ccc(/C(=C(/CCCl)c2ccccc2)c2ccc(O)cc2)cc1 [OH-Toremifene, (Z)-(2)-2-[4-(4-chloro-1-(4-hydroxyphenyl)-2-phenyl-1-butenyl)phenoxy]-N,N-dimethylethanamine]	–	–	–	–	–	–	–	–	72.1 ± 7.6	29.6 ± 2.1	75.73 ± 3.52 (3)	–
C[C@]12CC[C@@H]3c4ccc(O)cc4CC[C@H]3[C@@H]1CC[C@@H]2O [E2, 17β-estradiol]	–	–	–	–	–	–	–	–	–	–	–	ALP (serum alkaline phosphatase activity) [4]: 59 ± 4 IU/L; CHOLESTEROL (serum) [4]: 1.37 ± 0.18 mmol/L; TOTAL FAT [4]: 19.5 ± 2.5 %; LUMBAR SPINE BMD [4, 7]: 0.2457 ± 0.0049 g/cm^2; LUMBAR SPINE Prevention of Bone Loss [4, 7]: 98%
CN(C)CCOc1ccc(/C(=C(/CCCl)c2ccccc2)c2ccccc2)cc1 [Toremifene, (Z)-2-[4-(4-Chloro-1,2-diphenyl-1-butenyl)phenoxy]-N,N-dimethylethanamine]	86%	230	89	25 of 28	41	135	31.47^b,d ± 0.04 μm	24.75^b,c ± 0.04 μm	–	–	–	tumors in the progression category, % [2]: 21%; tumors in the progression category, number of total [2]: 6 of 28
Oc1ccc2c(c1)CC[C@@H](c1ccccc1)[C@H]2c1ccc(OCCN2CCCC2)cc1 (single isomer, unassigned) [inactive enantiomer of lasofoxifene]	–	–	–	–	–	–	–	–	–	–	–	inhibition of estrone-stimulated uterine weight ([1]; any dose used (1, 3, 10 μg)): no inhibitory effect; inhibition of vaginal weight (estrone-stimulated) ([1]; any dose used (1, 3, 10 μg)): no inhibitory effect; stimulation of uterine weight (estrogenic effect) [1]: no stimulatory effect; stimulation of vaginal weight (estrogenic effect) [1]: no stimulatory effect
COc1ccc(-c2sc3cc(O)ccc3c2Oc2ccc(OCCN3CCCCC3)cc2)cc1.Cl [LY 353381, 6-hydroxy-3-[4-[2-(1-piperidinyl)ethoxy]phenoxyl]-2-(4-methoxyphenyl) benzo [b] thiophene hydrochloride]	–	–	–	–	–	–	–	–	1.87 ± 0.07	15.5 ± 0.25	90.25 ± 0.127 (2)	–
CC/C(=C(/c1ccc(OCCN(C)C)cc1)c1cccc(O)c1)c1ccccc1 [Droloxifene, (E)-3-[1-[4-[2-(Dimethylamino)ethoxy]phenyl]-2-phenyl-1-butenyl] phenol]	did not significantly change	478	100	23 of 23	17	101	36.71^b,d ± 0.12 μm	18.50 ± 0.07 μm	–	–	–	–
